23 molecules from patent US11472769B2, “SSAO inhibitors and use thereof” (Eccogene (Shanghai) Co., Ltd., priority 2019, dated 2022) can be followed below.

Type in all cases: biochemical
One test addresses recombinant hSSAO (Homo sapiens (Human), UniProt Q16853). The experiment in a line: SSAO Activity Assay (MAO-Glo assay kit). To be noted: 40 μM substrate, 30 mins pre-incubation. In a few lines: (§1)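 Substrate was 4 μM in MAO-B buffer for hMAO-B and 40 μM in MAO-A buffer for hSSAO and hMAO-A. Each enzyme first saw compound (0.1% DMSO vehicle) for 30 min at room temperature.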
Another test addresses recombinant hMAO-A (Homo sapiens (Human), UniProt P21397). Kind of test: MAO-A activity assay (MAO-Glo assay kit). The note with it: 40 μM substrate, 30 mins pre-incubation. Here is the method: The biological activities of the compounds of the present application can be assessed with methods and assays known in the art. For example, the potency of the compounds of the present application can be evaluated with an SSAO Activity Assay. Briefly, compounds of the present application can be applied to recombinant hSSAO, hMAO-A, and hMAO-B isoforms and the amine oxidase activity of the enzymes are measured after the addition and subsequent oxidation of the luminogenic substrate (e.g., with the MAO-Glo assay kit from Promega). The IC50 can be calculated, for example, by fitting the dose response curve using a 4-parameter non-linear regression routine.
Amine oxidase activity of recombinant hSSAO, hMAO-A, and hMAO-B isoforms are measured using the MAO-Glo assay kit (Promega, V1402). Ten nL test compounds (with DMSO as vehicle, 0.1% v/v for hSSAO, hMAO-A and hMAO-B) were added into assay plates by Echo, and pre-incubated with 5 μL of enzyme for 30 mins at room temperature before the addition of 5 μL of luminogenic substrate. The substrate concentration is 40 μM for human recombinant SSAO, 40 μM for human recombinant MAO-A, and 4 μM for human recombinant MAO-B. The hSSAO and hMAO-A assays were conducted in the MAO-A reaction buffer in the kit, and the MAO-B assay was conducted in the MAO-B reaction buffer. Oxidation of the substrate was conducted for 1 hr, before the addition of detecting reagent according the manufacture's protocol. The IC50 value of the tested compounds was calculated by fitting the dose response curve using a 4-parameter non-linear regression routine.

The target in another test is recombinant hMAO-B (Homo sapiens (Human), UniProt P27338). Kind of test: MAO-B activity assay (MAO-Glo assay kit). The note with it: 4 μM substrate, 30 mins pre-incubation. An outline of the steps: as §1
Chain of recombinant hMAO-B (P27338 whole entry): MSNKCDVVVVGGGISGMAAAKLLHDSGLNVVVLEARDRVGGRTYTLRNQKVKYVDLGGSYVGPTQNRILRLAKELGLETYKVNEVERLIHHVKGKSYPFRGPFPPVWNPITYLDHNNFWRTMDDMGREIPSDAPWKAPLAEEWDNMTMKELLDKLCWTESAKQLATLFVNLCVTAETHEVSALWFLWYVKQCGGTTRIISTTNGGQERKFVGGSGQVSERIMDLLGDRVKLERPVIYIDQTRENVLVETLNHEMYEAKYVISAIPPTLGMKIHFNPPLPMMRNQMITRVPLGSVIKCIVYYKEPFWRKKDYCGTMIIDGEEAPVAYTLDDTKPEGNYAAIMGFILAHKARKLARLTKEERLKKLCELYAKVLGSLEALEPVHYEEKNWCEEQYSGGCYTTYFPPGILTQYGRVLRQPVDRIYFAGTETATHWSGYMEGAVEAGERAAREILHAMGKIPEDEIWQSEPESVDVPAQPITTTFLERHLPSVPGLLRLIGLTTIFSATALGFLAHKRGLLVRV

By IC50 is commonly meant the concentration that gives 50% inhibition.

Chain of recombinant hMAO-A (P21397 whole entry, canonical isoform): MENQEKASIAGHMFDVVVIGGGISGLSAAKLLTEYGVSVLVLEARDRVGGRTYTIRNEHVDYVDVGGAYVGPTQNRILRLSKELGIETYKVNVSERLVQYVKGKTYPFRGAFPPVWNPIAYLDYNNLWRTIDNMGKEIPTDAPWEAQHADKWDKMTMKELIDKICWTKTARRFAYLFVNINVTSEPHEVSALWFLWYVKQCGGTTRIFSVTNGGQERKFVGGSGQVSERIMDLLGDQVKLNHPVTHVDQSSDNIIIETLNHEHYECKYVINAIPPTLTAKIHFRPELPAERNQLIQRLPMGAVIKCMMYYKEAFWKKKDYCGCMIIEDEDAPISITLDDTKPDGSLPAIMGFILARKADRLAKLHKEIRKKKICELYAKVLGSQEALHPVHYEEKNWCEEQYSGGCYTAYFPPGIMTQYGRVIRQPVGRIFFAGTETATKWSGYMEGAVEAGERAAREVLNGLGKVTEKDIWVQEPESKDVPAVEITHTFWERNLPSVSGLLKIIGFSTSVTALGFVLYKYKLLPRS
Chain of recombinant hSSAO (Q16853 whole entry): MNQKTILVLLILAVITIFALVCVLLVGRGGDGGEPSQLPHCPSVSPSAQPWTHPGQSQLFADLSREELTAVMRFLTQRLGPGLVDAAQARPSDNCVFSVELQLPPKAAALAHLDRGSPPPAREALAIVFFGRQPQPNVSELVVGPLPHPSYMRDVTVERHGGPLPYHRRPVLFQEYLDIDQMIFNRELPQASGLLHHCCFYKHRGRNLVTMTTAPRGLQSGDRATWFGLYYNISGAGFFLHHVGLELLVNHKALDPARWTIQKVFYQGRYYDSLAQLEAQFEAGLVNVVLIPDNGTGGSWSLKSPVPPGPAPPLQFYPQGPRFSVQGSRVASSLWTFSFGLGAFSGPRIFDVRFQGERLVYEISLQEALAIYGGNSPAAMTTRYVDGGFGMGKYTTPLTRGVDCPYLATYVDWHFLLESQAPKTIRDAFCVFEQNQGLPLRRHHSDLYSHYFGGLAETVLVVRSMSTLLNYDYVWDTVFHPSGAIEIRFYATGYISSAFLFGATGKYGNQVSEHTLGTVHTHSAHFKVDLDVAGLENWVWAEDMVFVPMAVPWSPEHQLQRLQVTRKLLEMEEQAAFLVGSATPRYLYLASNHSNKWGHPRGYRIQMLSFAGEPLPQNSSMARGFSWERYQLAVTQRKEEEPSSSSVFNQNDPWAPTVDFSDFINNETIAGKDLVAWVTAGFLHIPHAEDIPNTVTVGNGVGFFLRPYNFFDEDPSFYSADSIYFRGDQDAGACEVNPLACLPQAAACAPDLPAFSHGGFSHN

Consider `CCN(CC)C(=O)C12CCC(CS(=O)(=O)c3ccc(OC/C(=C/F)CN)cc3)(CC1)CC2` [Compound 74, (E)-4-(((4-((2-(aminomethyl)-3-fluoroallyl)oxy)phenyl)sulfonyl)methyl)-N,N-diethylbicyclo[2.2.2] octane-1-carboxamide], for which the IC50 on recombinant hSSAO is 0.02 to 0.1 µM; at recombinant hMAO-A it was greater than 30 µM; at recombinant hMAO-B, greater than 30 µM.

Consider `NC/C(=C\F)COc1ccc(S(=O)(=O)CC23CCC(C(=O)NC4CC4)(CC2)CC3)cc1` [Compound 75, (E)-4-(((4-((2-(aminomethyl)-3-fluoroallyl)oxy)phenyl)sulfonyl)methyl)-N-cyclopropylbicyclo[2.2.2]octane-1-carboxamide], for which the IC50 on recombinant hSSAO was less than 0.02 µM; on recombinant hMAO-A it was greater than 30 µM; on recombinant hMAO-B it was 10 to 30 µM.

Consider `CC(C)(C)C(=O)NC12CC(CS(=O)(=O)c3ccc(OC/C(=C/F)CN)cc3)(C1)C2` [Compound 77, (E)-N-(3-(((4-((2-(aminomethyl)-3-fluoroallyl)oxy)phenyl)sulfonyl)methyl)bicyclo[1.1.1]pentan-1-yl)pivalamide], for which the IC50 on recombinant hSSAO is less than 0.02 µM; on recombinant hMAO-A, greater than 30 µM; at recombinant hMAO-B, greater than 30 µM.

With `CC(C)C(=O)NC12CCC(CS(=O)(=O)c3ccc(OC/C(=C/F)CN)cc3)(CC1)CC2` [Compound 80, (E)-N-(4-(((4-((2-(aminomethyl)-3-fluoroallyl)oxy)phenyl)sulfonyl)methyl)bicyclo[2.2.2]octan-1-yl)isobutyramide], the results for the IC50 at recombinant hSSAO, at recombinant hMAO-A and at recombinant hMAO-B were less than 0.02 µM, greater than 30 µM and 10 to 30 µM, respectively.

As for `NC/C(=C\F)COc1ccc(S(=O)(=O)CC23CCC(NS(=O)(=O)C4CC4)(CC2)CC3)cc1` [Compound 81, (E)-N-(4-(((4-((2-(aminomethyl)-3-fluoroallyl)oxy)phenyl)sulfonyl)methyl)bicyclo[2.2.2]octan-1-yl)cyclopropanesulfonamide], the figures for the IC50 on recombinant hSSAO, at recombinant hMAO-A and at recombinant hMAO-B were less than 0.02 µM, greater than 30 µM and greater than 30 µM, respectively.

In the case of `NC/C(=C\F)COc1ccc(S(=O)(=O)CC23CCC(NC(=O)C4CC4(F)F)(CC2)CC3)cc1` (stereo not drawn) [Compound 84, (E)-N-(4-(((4-((2-(aminomethyl)-3-fluoroallyl)oxy)phenyl)sulfonyl)methyl)bicyclo[2.2.2]octan-1-yl)-2,2-difluorocyclopropane-1-carboxamide], the IC50 is less than 0.02 µM at recombinant hSSAO, greater than 30 µM at recombinant hMAO-A and 10 to 30 µM at recombinant hMAO-B.

Turning to `NC/C(=C\F)COc1ccc(S(=O)(=O)CC23CCC(NC(=O)C4(C(F)(F)F)CC4)(CC2)CC3)cc1` [Compound 85, (E)-N-(4-(((4-((2-(aminomethyl)-3-fluoroallyl)oxy)phenyl)sulfonyl)methyl)bicyclo[2.2.2]octan-1-yl)-1-(trifluoromethyl)cyclopropane-1-carboxamide], the IC50 was 0.02 to 0.1 µM at recombinant hSSAO, greater than 30 µM on recombinant hMAO-A and 10 to 30 µM at recombinant hMAO-B.

In the case of `NC/C(=C\F)COc1ccc(S(=O)(=O)CC23CCC(NC(=O)C4(F)CC4)(CC2)CC3)cc1` [Compound 86, (E)-N-(4-(((4-((2-(aminomethyl)-3-fluoroallyl)oxy)phenyl)sulfonyl)methyl)bicyclo[2.2.2]octan-1-yl)-1-fluorocyclopropane-1-carboxamide], the IC50 at recombinant hSSAO is less than 0.02 µM; at recombinant hMAO-A it was greater than 30 µM; on recombinant hMAO-B, less than 10 µM.

On to `CC(C)(C)C(=O)NC12CCC(CS(=O)(=O)c3ccc(OC/C(=C/F)CN)cc3)(CC1)CC2` [Compound 90, (E)-N-(4-(((4-((2-(aminomethyl)-3-fluoroallyl)oxy)phenyl)sulfonyl)methyl)bicyclo[2.2.2]octan-1-yl)pivalamide], for which the IC50 was less than 0.02 µM on recombinant hSSAO, greater than 30 µM at recombinant hMAO-A and 10 to 30 µM at recombinant hMAO-B.

Consider `NC/C(=C\F)COc1ccc(S(=O)(=O)CC23CCC(NC(=O)C4CCC4)(CC2)CC3)cc1` [Compound 92, (E)-N-(4-(((4-((2-(aminomethyl)-3-fluoroallyl)oxy)phenyl)sulfonyl)methyl)bicyclo[2.2.2]octan-1-yl)cyclobutanecarboxamide], for which the concentration for half-maximal inhibition (IC50) is less than 0.02 µM at recombinant hSSAO, greater than 30 µM at recombinant hMAO-A and 10 to 30 µM on recombinant hMAO-B.

On to `NC/C(=C\F)COc1ccc(S(=O)(=O)CCN2CCCCC2=O)cc1` [Compound 107, (E)-1-(2-((4-((2-(aminomethyl)-3-fluoroallyl)oxy)phenyl)sulfonyl)ethyl) piperidin-2-one], for which the IC50 at recombinant hSSAO was less than 0.02 µM; at recombinant hMAO-A it was greater than 30 µM; on recombinant hMAO-B, less than 10 µM.

As to `CC(CN1C(=O)CCC1(C)C)CS(=O)(=O)c1ccc(OC/C(=C/F)CN)cc1` (stereo not drawn) [Compound 111, (E)-1-(3-((4-((2-(aminomethyl)-3-fluoroallyl)oxy)phenyl)sulfonyl)-2-methylpropyl)-5,5-dimethylpyrrolidin-2-one], the IC50 was 0.02 to 0.1 µM at recombinant hSSAO, greater than 30 µM on recombinant hMAO-A and 10 to 30 µM on recombinant hMAO-B.

As to `CC(CN1CCOCC1)CS(=O)(=O)c1ccc(OC/C(=C/F)CN)cc1F` (stereo not drawn) [Compound 114, (E)-3-fluoro-2-((3-fluoro-4-((2-methyl-3-morpholinopropyl)sulfonyl)phenoxy)methyl)prop-2-en-1-amine], the IC50 at recombinant hSSAO was 0.02 to 0.1 µM; on recombinant hMAO-A it was greater than 30 µM; on recombinant hMAO-B it was greater than 30 µM.

`NC/C(=C\F)COc1ccc(S(=O)(=O)CC2(CN3CCOCC3)CC2)cc1` [Compound 116, (E)-3-fluoro-2-((4-(((1-(morpholinomethyl)cyclopropyl)methyl)sulfonyl)phenoxy)methyl) prop-2-en-1-amine]: the IC50 was 0.02 to 0.1 µM at recombinant hSSAO, greater than 30 µM on recombinant hMAO-A and greater than 30 µM on recombinant hMAO-B.

Take `NC/C(=C\F)COc1ccc(S(=O)(=O)CN2Cc3ccccc3C2=O)cc1` [Compound 118, (E)-2-(((4-((2-(aminomethyl)-3-fluoroallyl)oxy)phenyl)sulfonyl)methyl)isoindolin-1-one]: the IC50 at recombinant hSSAO was 0.02 to 0.1 µM; at recombinant hMAO-A it was less than 10 µM; at recombinant hMAO-B, less than 10 µM.

Consider `NC/C(=C\F)COc1ccc(S(=O)(=O)CN2C(=O)CCc3ccccc32)cc1` [Compound 119, (E)-1-(((4-((2-(aminomethyl)-3-fluoroallyl)oxy)phenyl)sulfonyl)methyl)-3,4-dihydroquinolin-2(1H)-one], for which the IC50 at recombinant hSSAO was 0.02 to 0.1 µM; at recombinant hMAO-A it was 10 to 30 µM; at recombinant hMAO-B, greater than 30 µM.

Turning to `NC/C(=C\F)COc1ccc(S(=O)(=O)CN2C(=O)C3(CC3)c3ccccc32)cc1` [Compound 120, (E)-1′-(((4-((2-(aminomethyl)-3-fluoroallyl)oxy)phenyl)sulfonyl)methyl)spiro[cyclopropane-1,3′-indolin]-2′one], the IC50 is 0.02 to 0.1 µM on recombinant hSSAO, greater than 30 µM at recombinant hMAO-A and greater than 30 µM at recombinant hMAO-B.

For `CC(C)C(=O)N(C)CS(=O)(=O)c1ccc(OC/C(=C/F)CN)cc1` [Compound 122, (E)-N-(((4-((2-(aminomethyl)-3-fluoroallyl)oxy)phenyl)sulfonyl)methyl)-N-methylisobutyramide], the figures for the IC50 at recombinant hSSAO, on recombinant hMAO-A and on recombinant hMAO-B were 0.02 to 0.1 µM, greater than 30 µM and less than 10 µM, respectively.

`CC1(C)CCC(=O)N1CS(=O)(=O)c1ccc(OC/C(=C/F)CN)cc1` [Compound 123, (E)-1-(((4-((2-(aminomethyl)-3-fluoroallyl)oxy)phenyl)sulfonyl)methyl)-5,5-dimethylpyrrolidin-2-one]: the IC50 is 0.02 to 0.1 µM on recombinant hSSAO, greater than 30 µM on recombinant hMAO-A and greater than 30 µM at recombinant hMAO-B.

Take `CC1(C)CCC(=O)N1CS(=O)(=O)c1ccc(OC/C(=C/F)CN)cc1Cl` [Compound 124, (E)-1-(((4-((2-(aminomethyl)-3-fluoroallyl)oxy)-2-chlorophenyl)sulfonyl)methyl)-5,5-dimethylpyrrolidin-2-one]: the IC50 at recombinant hSSAO is 0.02 to 0.1 µM; at recombinant hMAO-A, greater than 30 µM; on recombinant hMAO-B, greater than 30 µM.

Consider `CC1(C)CCN(CS(=O)(=O)c2ccc(OC/C(=C/F)CN)cc2)C1=O` [Compound 125, (E)-1-(((4-((2-(aminomethyl)-3-fluoroallyl)oxy)phenyl)sulfonyl)methyl)-3,3-dimethylpyrrolidin-2-one], for which the figures for the IC50 on recombinant hSSAO, at recombinant hMAO-A and on recombinant hMAO-B were 0.02 to 0.1 µM, greater than 30 µM and less than 10 µM, respectively.

Take `CC1(C)CC(=O)N(CS(=O)(=O)c2ccc(OC/C(=C/F)CN)cc2)C1` [Compound 126, (E)-1-(((4-((2-(aminomethyl)-3-fluoroallyl)oxy)phenyl)sulfonyl)methyl)-4,4-dimethylpyrrolidin-2-one]: the values for the IC50 on recombinant hSSAO, on recombinant hMAO-A and on recombinant hMAO-B were 0.1 to 0.5 µM, greater than 30 µM and 10 to 30 µM, respectively.

With `NC/C(=C\F)COc1ccc(S(=O)(=O)CN2CCC3(CCCC3)C2=O)cc1` [Compound 127, (E)-2-(((4-((2-(aminomethyl)-3-fluoroallyl)oxy)phenyl)sulfonyl)methyl)-2-azaspiro[4.4]nonan-1-one], the IC50 is 0.1 to 0.5 µM at recombinant hSSAO, greater than 30 µM at recombinant hMAO-A and less than 10 µM on recombinant hMAO-B.
